{"source": "patent US20210244704A1", "about": "“Cabazitaxel in mCRPC Patients Previously Treated with Docetaxel and Who Failed a Prior androgen signaling targeted inhibitor Agent” (SANOFI MATURE IP, priority 2019, published 2021)", "key": {"[1]": {"tested_on": "patients with mCRPC who progressed during or after docetaxel", "settings": "every 3 weeks with prednisone 10 mg daily; cabazitaxel 25 mg/m^2, mitoxantrone 12 mg/m^2; cited from earlier work"}, "[2]": {"tested_on": "mCRPC patients, safety population", "experiment": "Same clinical study: safety (adverse events, laboratory abnormalities, dose reductions)", "format": "in vivo, human", "procedure": "For patients in Arm A, cabazitaxel 25 mg/m^2 was administered intravenously over 1 hour every 3 weeks along with oral prednisone 10 mg given daily. Primary prophylactic granulocyte-colony stimulating factor (G-CSF) was required at each cycle for all patients in the cabazitaxel arm\nFor patients in Arm B, abiraterone acetate was administered orally at 1000 mg once daily along with oral prednisone 5 mg given twice daily or enzalutamide was administered orally at 160 mg once daily continuously. Abiraterone acetate was administered to patients who had received enzalutamide prior to study entry. Enzalutamide was administered to patients who received prior abiraterone acetate.\nCabazitaxel 25 mg/m^2, was administered intravenously over 1 hour every 3 weeks with oral prednisone 10 mg daily. Premedication included an antihistamine, glucocorticoid (dexamethasone 8 mg or equivalent), and histamine 2 receptor antagonist. Antiemetic prophylaxis was administered at physician's discretion. Primary prophylactic granulocyte-colony stimulating factor was required during each cycle of cabazitaxel. Patients received either abiraterone acetate (1000 mg orally once daily and oral prednisone 5 mg twice daily) or enzalutamide (160 mg orally once daily) continuously. A treatment cycle was 3 weeks in both arms. Abiraterone acetate was given to patients who previously received enzalutamide before study entry. Enzalutamide was given to patients who previously received abiraterone acetate.\nUp to a maximum of 2 dose reductions was allowed per patient when necessary due to toxicity and according to the table below:\n(§1) Efficacy analysis used all randomized patients. Stratified log-rank tests were used to analyze time-to-event data. The primary analysis compared radiographic progression-free survival between the two treatment groups using a stratified log-rank test. Survival curves were generated using Kaplan-Meier estimates. Hazard ratios and associated 95% confidence intervals [CI] were estimated using a stratified Cox proportional hazards model. Stratified Cochran-Mantel-Haenszel chi-square tests were used to analyze categorical data. Descriptive statistics were used to summarize patient characteristics. The safety population (randomized patients who received at least one dose of study treatment) was used for all safety analyses."}, "pain in mCRPC patients": {"tested_on": "pain in mCRPC patients", "experiment": "Same clinical study: pain response and pain progression (BPI-SF)", "format": "in vivo, human", "settings": "for Pain progression, HR: cabazitaxel vs abiraterone or enzalutamide", "procedure": "Pain response (PR): was measured using the Brief Pain Inventory-Short Form for pain intensity score and defined as a decrease by >30% from baseline in the Brief Pain Inventory-Short Form pain intensity item scores observed at two consecutive evaluations weeks apart without an increase in analgesic usage score.\nPain response was defined as a decrease≥30% from baseline in BPI-SF pain intensity score with no increased analgesic use. HRQL was assessed using the Functional Assessment of Cancer Therapy-Prostate (FACT-P) questionnaire. Pain intensity was defined using item 3 of the validated Brief Pain Inventory-Short Form (BPI-SF), which rates pain at its worst in the last 24 hours on a scale of 0 (no pain) to 10 (worst imaginable pain). Analgesic consumption was reported by local investigators and coded by the World Health Organization's analgesic ladder (0=no analgesic; 1=non-opioid analgesics; 2=opioid analgesics for moderate pain; 3=opioids for severe pain). […] A clinically meaningful improvement or deterioration of total FACT-P score was defined as a difference of ±10 points from baseline. Clinically meaningful changes in HRQL and pain response were confirmed at two consecutive evaluations≥3 weeks apart during the on-treatment period. Survival curves were generated by Kaplan-Meier estimates.\nas §1"}, "[3]": {"settings": "human, in vivo, listed as cabazitaxel"}}, "note": "Marks after values point to notes of the source that are not given here.", "data": [{"compound": "CO[C@H]1C(=O)[C@]2(C)[C@@H](OC)C[C@H]3OC[C@@]3(OC(C)=O)[C@H]2[C@H](OC(=O)c2ccccc2)[C@]2(O)C[C@H](OC(=O)[C@H](O)[C@@H](NC(=O)OC(C)(C)C)c3ccccc3)C(C)=C1C2(C)C", "note": "[Cabazitaxel, 4α-acetoxy-2α-benzoyloxy-5β,20-epoxy-1p-hydroxy-7β,10β-dimethoxy-9-oxo-11-taxen-13α-yl (2R,3S)-3-tert-butoxycarbonylamino-2-hydroxy-3-phenylpropionate]", "values": [{"measurement": "Median overall survival, TROPIC trial", "setting": "[1]", "result": 15.1, "unit": "months"}, {"measurement": "Grade ≥3 neutropenia, measured at nadir by blood test", "setting": "[2]", "result": 55, "unit": "patients"}, {"measurement": "Anemia (laboratory abnormality)", "setting": "[2]; All grades", "result": "(99.2) %"}, {"measurement": "Constipation", "setting": "[2]; All grades", "result": 19, "unit": "n"}, {"measurement": "Hematuria", "setting": "[2]; All grades", "result": 19, "unit": "n"}, {"measurement": "Hypokalemia (laboratory abnormality)", "setting": "[2]; All grades", "result": "(12.0) %"}, {"measurement": "Leukopenia (laboratory abnormality)", "setting": "[2]; All grades", "result": "(74.4) %"}, {"measurement": "Thrombocytopenia (laboratory abnormality)", "setting": "[2]; All grades", "result": "(40.8) %"}, {"measurement": "Alopecia", "setting": "[2]; Grade ≥3", "result": 0, "unit": "n"}, {"measurement": "Anemia (laboratory abnormality)", "setting": "[2]; Grade ≥3", "result": "(8.0) %"}, {"measurement": "Arthralgia", "setting": "[2]; Grade ≥3", "result": 0, "unit": "n"}, {"measurement": "Asthenia/fatigue", "setting": "[2]; Grade ≥3", "result": 4.0, "unit": "%"}, {"measurement": "Bladder and urethral symptoms", "setting": "[2]; Grade ≥3", "result": 0, "unit": "n"}, {"measurement": "Cardiac disorders", "setting": "[2]; Grade ≥3", "result": 0.8, "unit": "%"}, {"measurement": "Constipation", "setting": "[2]; Grade ≥3", "result": 0, "unit": "n"}, {"measurement": "Diarrhea", "setting": "[2]; Grade ≥3", "result": 3.2, "unit": "%"}, {"measurement": "Dysgeusia", "setting": "[2]; Grade ≥3", "result": 0, "unit": "n"}, {"measurement": "Dyspnea", "setting": "[2]; Grade ≥3", "result": 0, "unit": "n"}, {"measurement": "Febrile neutropenia", "setting": "[2]; Grade ≥3", "result": 3.2, "unit": "%"}, {"measurement": "Hypokalemia (laboratory abnormality)", "setting": "[2]; Grade ≥3", "result": "(0.8) %"}, {"measurement": "Leukopenia (laboratory abnormality)", "setting": "[2]; Grade ≥3", "result": "(32.0) %"}, {"measurement": "Musculoskeletal pain/discomfort", "setting": "[2]; Grade ≥3", "result": 1.6, "unit": "%"}, {"measurement": "Nausea/vomiting", "setting": "[2]; Grade ≥3", "result": 0, "unit": "n"}, {"measurement": "Peripheral edema", "setting": "[2]; Grade ≥3", "result": 0, "unit": "n"}, {"measurement": "Peripheral neuropathy", "setting": "[2]; Grade ≥3", "result": 3.2, "unit": "%"}, {"measurement": "Psychiatric disorders", "setting": "[2]; Grade ≥3", "result": 0, "unit": "n"}, {"measurement": "Renal disorders", "setting": "[2]; Grade ≥3", "result": 3.2, "unit": "%"}, {"measurement": "Spinal cord and nerve root disorders", "setting": "[2]; Grade ≥3", "result": 2.4, "unit": "%"}, {"measurement": "Stomatitis", "setting": "[2]; Grade ≥3", "result": 0, "unit": "n"}, {"measurement": "Thrombocytopenia (laboratory abnormality)", "setting": "[2]; Grade ≥3", "result": "(3.2) %"}, {"measurement": "Weight decreased", "setting": "[2]; Grade ≥3", "result": 0, "unit": "n"}, {"measurement": "Grade 5 adverse events related to bronchial aspiration", "setting": "[2]; human, in vivo", "result": "one"}, {"measurement": "Grade 5 adverse events related to general health deterioration due to progressive disease", "setting": "[2]; human, in vivo", "result": "two"}, {"measurement": "Grade 5 adverse events related to head injury", "setting": "[2]; human, in vivo", "result": "one"}, {"measurement": "Grade 5 adverse events related to infections", "setting": "[2]; human, in vivo", "result": "two"}, {"measurement": "Grade 5 adverse events related to spinal cord compression", "setting": "[2]; human, in vivo", "result": "one"}, {"measurement": "Nail disorders", "setting": "[2]; human, in vivo", "result": "no nail disorders were reported"}, {"measurement": "Any adverse event leading to permanent treatment discontinuation", "setting": "[2]; [3]", "result": 19.8, "unit": "%"}, {"measurement": "Any adverse events", "setting": "[2]; [3]", "result": 98.4, "unit": "%"}, {"measurement": "Any grade ≥3 adverse events", "setting": "[2]; [3]", "result": 56.3, "unit": "%"}, {"measurement": "Any serious adverse events", "setting": "[2]; [3]", "result": 38.9, "unit": "%"}, {"measurement": "Grade ≥3 adverse events occurring more frequently in patients ≥70 years of age", "setting": "[2]; ≥70 vs <70 years", "result": "asthenia, diarrhea and febrile neutropenia"}, {"measurement": "Pain (BPI-SF), Kaplan-Meier probability of no deterioration at 3 months", "setting": "pain in mCRPC patients; 3 months", "result": 87.8}, {"measurement": "Probability of not having pain progression after 12 months", "setting": "pain in mCRPC patients; 12 months", "result": 66.2, "unit": "%"}, {"measurement": "Pain progression, HR", "setting": "pain in mCRPC patients", "result": "0.55*"}, {"measurement": "Pain progression, HR", "setting": "pain in mCRPC patients; listed as cabazitaxel", "result": 0.55}, {"measurement": "Patients with a confirmed pain response", "setting": "pain in mCRPC patients; evaluable 111 and 109", "result": 50, "unit": "n"}, {"measurement": "Patients with a confirmed pain response", "setting": "pain in mCRPC patients; evaluable patients, listed as cabazitaxel", "result": 45.0, "unit": "%"}, {"measurement": "Median time to pain progression (BPI-SF)", "setting": "pain in mCRPC patients; human, in vivo", "result": "NE (NE-NE)"}, {"measurement": "Pain (BPI-SF) deterioration events", "setting": "pain in mCRPC patients; human, in vivo", "result": 22.5, "unit": "%"}, {"measurement": "Pain (BPI-SF) deterioration events, n/nT", "setting": "pain in mCRPC patients; human, in vivo", "result": "25/111"}, {"measurement": "Median time to pain progression (BPI-SF)", "setting": "pain in mCRPC patients; [3]", "result": "not reached"}]}]}
